From patent US20240082282A1 (priority 2020, published 2024) come the findings set out here.

This data set concerns murine gut microbiome. Put plainly: Impact on the murine fecal microbiome (16S rRNA sequencing). Particulars: mouse, in vivo. As to the method:
Stool samples were collected and V4 region of the 16s rRNA gene was amplified using primers and sequenced (IonTorrent).
Fecal pellets were collected 3 days before and 3 days after antibiotic treatment and were stored at −80° C. in PBS. Sequencing of a stool pellet from each mouse from before and after treatment was performed by MR DNA (www.mrdnalab.com, Shallowater, TX, USA) on an Ion Torrent PGM. Using PCR primers, the V4 variable region of the 16SrRNA gene was amplified in a single-step 30 cycle PCR with the HotStarTaq Plus Master Mix Kit (Qiagen, USA). The following conditions were used: 94° C. for 3 minutes and 30 cycles of 94° C. for 30 seconds, 53° C. for 40 seconds and 72° C. for 1 minute, then a final elongation step for 5 minutes at 72° C. […] Barcodes and primers and then sequences<150 bp were removed. Further, sequences with homopolymer runs exceeding 6 bp and sequences with ambiguous calls were removed. The sequences were then denoised, OTUs were generated, and chimeras were removed; OTUs were clustered at 3% divergence. Taxonomic classification was performed using BLASTn against a database derived from RDPII available at www.rdp.cme.msu.edu) and NCBI (www.ncbi.nlm.nih.gov). The change in relative abundance of the most abundant genera from before to after treatment of each individual mouse was reported. Further, raw sequences were processed in Qiita (Gonzalez, A., et al. (2018). Nat Methods 15, 796-798; the contents of which are herein incorporated by reference in its entirety) and were demultiplexed, trimmed to 100 bp, and closed reference OTU picking was performed against the Greengenes database at 97% similarity (McDonald, D. et al. (2012). ISME J 6, 610-618; the contents of which are herein incorporated by reference in its entirety). The alpha diversity based on the Simpson index was calculated in Qiita. The change in the Simpson index was calculated for the fecal microbiome of each mouse from before to after treatment. Statistical significance was calculated using a one-way ANOVA with Tukey's multiple comparisons test (p<0.05).

Consider `CC1(C)S[C@@H]2[C@H](NC(=O)[C@H](N)c3ccccc3)C(=O)N2[C@H]1C(=O)O` [Ampicillin, reference compound], for which the “Changes in the composition of the microbiota” value is given as “significant changes”.
